Test results published in patent publication US12599136B2, “Substituted isophthalic acid diamides and their use as herbicides” (Bayer Aktiengesellschaft, priority 2020, dated 2026).

Columns and labels:
Format in all cases: in vivo
Abutilon theophrasti [1] = experiment: Pre-emergence herbicidal action against ABUTH; conditions: visual score after 3 weeks vs untreated controls
How it was run: (§1)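 Herbicidal effect was assessed 3 weeks after treatment by visual comparison with untreated controls, 100% denoting dead plants. Aqueous WP or EC preparations had been applied at 600 to 800 l/ha with 0.2% wetting agent to the soil covering freshly sown seeds.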

Alopecurus myosuroides [2] = experiment: Pre-emergence herbicidal action against ALOMY; conditions: 80 g/ha; visual score after 3 weeks vs untreated controls
How it was run: as §1

Amaranthus retroflexus [3] = experiment: Pre-emergence herbicidal action against AMARE; conditions: visual score after 3 weeks vs untreated controls
How it was run: as §1

Avena fatua [4] = experiment: Pre-emergence herbicidal action against AVEFA; conditions: 80 g/ha; visual score after 3 weeks vs untreated controls
How it was run: as §1

Echinochloa crus-galli = experiment: Pre-emergence herbicidal action against ECHCG; conditions: 80 g/ha; visual score after 3 weeks vs untreated controls
How it was run: as §1

Matricaria inodora [5] = experiment: Pre-emergence herbicidal action against MATIN; conditions: visual score after 3 weeks vs untreated controls
How it was run: as §1

Digitaria sanguinalis [6] = experiment: Pre-emergence herbicidal action against DIGSA
How it was run: as §1

Setaria viridis [7] = experiment: Pre-emergence herbicidal action against SETVI; conditions: 80 g/ha
How it was run: as §1

Viola tricolor [8] = experiment: Pre-emergence herbicidal action against VIOTR
How it was run: as §1

Alopecurus myosuroides [9] = experiment: Post-emergence herbicidal action against ALOMY
How it was run: (§2)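 Herbicidal effect was scored visually in percent after about 3 weeks in the greenhouse. Plants had been raised in sandy loam and treated post-emergence at the one-leaf stage with formulated compound at 600 to 800 l/ha water plus 0.2% wetting agent.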

Amaranthus retroflexus [10] = experiment: Post-emergence herbicidal action against AMARE; conditions: visual assessment about 3 weeks after treatment
How it was run: as §2

Avena fatua [11] = experiment: Post-emergence herbicidal action against AVEFA; conditions: 20 g/ha, visual assessment about 3 weeks after treatment
How it was run: as §2

Matricaria inodora [12] = experiment: Post-emergence herbicidal action against MATIN; conditions: visual assessment about 3 weeks after treatment
How it was run: as §2

Digitaria sanguinalis [13] = experiment: Post-emergence herbicidal action against DIGSA
Experimental: Seeds of monocotyledonous and dicotyledonous weed and crop plants are laid out in sandy loam soil in wood-fiber pots, covered with soil and cultivated in a greenhouse under good growth conditions. 2 to 3 weeks after sowing, the test plants are treated at the one-leaf stage. The compounds of the invention, formulated in the form of wettable powders (WP) or as emulsion concentrates (EC), are then sprayed onto the green parts of the plants in the form of an aqueous suspension or emulsion at a water application rate equivalent to 600 to 800 l/ha, with addition of 0.2% wetting agent. After the test plants have been left to stand in the greenhouse under optimal growth conditions for about 3 weeks, the action of the preparations is assessed visually in comparison to untreated controls (herbicidal action in percent (%): 100% activity=the plants have died, 0% activity=like control plants). […] The tables below illustrate, in an illustrative manner, the post-emergence herbicidal action of the compounds of the invention, the herbicidal activity being stated in percent.

Setaria viridis [14] = experiment: Post-emergence herbicidal action against SETVI; conditions: visual assessment about 3 weeks after treatment
How it was run: as §2

Veronica persica [15] = experiment: Post-emergence herbicidal action against VERPE; conditions: 20 g/ha, visual assessment about 3 weeks after treatment
How it was run: as §2

Viola tricolor [16] = experiment: Post-emergence herbicidal action against VIOTR; conditions: 20 g/ha
How it was run: as §2

Lolium rigidum = experiment: Pre-emergence herbicidal action against LOLRI; conditions: 80 g/ha
Source text: Seeds of monocotyledonous and dicotyledonous weed plants and crop plants are laid out in sandy loam soil in wood-fiber pots and covered with soil. The compounds of the invention, formulated in the form of wettable powders (WP) or as emulsion concentrates (EC), are then applied to the surface of the covering soil in the form of an aqueous suspension or emulsion at a water application rate equivalent to 600 to 800 l/ha, with addition of 0.2% wetting agent. After the treatment, the pots are placed in a greenhouse and kept under good growth conditions for the trial plants. The damage to the test plants is scored visually after a test period of 3 weeks by comparison with untreated controls (herbicidal activity in percent (%): 100% activity=the plants have died, 0% activity=like control plants). […] The tables below illustrate, in an illustrative manner, the post-emergence herbicidal action of the compounds of the invention, the herbicidal activity being stated in percent.

Veronica persica [17] = experiment: Pre-emergence herbicidal action against VERPE; conditions: 80 g/ha
How it was run: as §1

Abutilon theophrasti [18] = experiment: Post-emergence herbicidal action against ABUTH
How it was run: as §2

Pharbitis purpurea = experiment: Post-emergence herbicidal action against PHBPU; conditions: visual assessment about 3 weeks after treatment
How it was run: as §2

Row | Structure (SMILES) | Pre-emergence action against ABUTH (Abutilon theophrasti [1]; 20 g/ha) | Pre-emergence action against ABUTH (Abutilon theophrasti [1]; 80 g/ha) | Pre-emergence action against ALOMY (Alopecurus myosuroides [2]) | Pre-emergence action against AMARE (Amaranthus retroflexus [3]; 20 g/ha) | Pre-emergence action against AMARE (Amaranthus retroflexus [3]; 80 g/ha) | Pre-emergence action against AVEFA (Avena fatua [4]) | Pre-emergence action against ECHCG (Echinochloa crus-galli) | Pre-emergence action against MATIN (Matricaria inodora [5]; 80 g/ha) | Pre-emergence action against SETVI (Setaria viridis [7]) | Pre-emergence action against VIOTR (Viola tricolor [8]; 80 g/ha) | Post-emergence action against ALOMY (Alopecurus myosuroides [9]; 20 g/ha) | Post-emergence action against AMARE in % (Amaranthus retroflexus [10]; 5 g/ha) | Post-emergence action against AMARE in % (Amaranthus retroflexus [10]; 20 g/ha) | Post-emergence action against MATIN in % (Matricaria inodora [12]; 20 g/ha) | Post-emergence action against DIGSA in % (Digitaria sanguinalis [13]; 20 g/ha) | Post-emergence action against SETVI in % (Setaria viridis [14]; 20 g/ha) | Post-emergence action against VIOTR in % (Viola tricolor [16]) | also measured
1 | CN(C(=O)c1c(C(F)(F)F)ccc(C(=O)Nc2nnnn2C)c1Cl)C1CC1 [Example 1-125] | 100% | 100% | 100% | 100% | 100% | 80% | 90% | 100% | 100% | 100% | 90% | 80% | 90% | 80% | 100% | 80% | 80% | Pre-emergence action against DIGSA (Digitaria sanguinalis [6]; 20 g/ha): 100%; Pre-emergence action against DIGSA (Digitaria sanguinalis [6]; 80 g/ha): 100%; Pre-emergence action against VIOTR (Viola tricolor [8]; 20 g/ha): 100%; Post-emergence action against ALOMY (Alopecurus myosuroides [9]; 5 g/ha): 80%; Post-emergence action against AVEFA in % (Avena fatua [11]): 80%; Post-emergence action against VERPE in % (Veronica persica [15]): 90%
2 | CCN(C)C(=O)c1c(C(F)F)ccc(C(=O)Nc2nnnn2CC)c1Cl [Example 2-155] | 100% | 100% | 90% | 100% | 100% | 90% | 100% | 100% | 100% | 100% | 90% | 100% | 100% | 90% | 80% | 100% | 80% | Pre-emergence action against MATIN (Matricaria inodora [5]; 20 g/ha): 80%; Pre-emergence action against LOLRI (Lolium rigidum): 90%; Pre-emergence action against VERPE (Veronica persica [17]): 90%; Post-emergence action against ABUTH (Abutilon theophrasti [18]; 5 g/ha): 80%; Post-emergence action against ABUTH (Abutilon theophrasti [18]; 20 g/ha): 90%; Post-emergence action against MATIN in % (Matricaria inodora [12]; 5 g/ha): 80%; Post-emergence action against PHBPU in % (Pharbitis purpurea; 5 g/ha): 80%; Post-emergence action against PHBPU in % (Pharbitis purpurea; 20 g/ha): 80%; Post-emergence action against DIGSA in % (Digitaria sanguinalis [13]; 5 g/ha): 80%; Post-emergence action against SETVI in % (Setaria viridis [14]; 5 g/ha): 80%
